Assay results from ChEMBL document CHEMBL4011590, “Structure-activity relationship studies on 3,5-dinitrophenyl tetrazoles as antitubercular agents” (Eur J Med Chem, 2017).
pIC50: −log10 of the molar value. In brackets after ≈: the same amount, converted by molar mass.

Assays:
[1] = test system: Mycobacterium tuberculosis; experiment: Antimycobacterial activity against Mycobacterium tuberculosis H37Rv CNCTC My 331/88 after 14 days by micromethod; assay type: functional; conditions: H37Rv CNCTC My 331/88, 336 h
[2] = test system: Mycobacterium tuberculosis; experiment: Antimycobacterial activity against Mycobacterium tuberculosis H37Rv CNCTC My 331/88 after 21 days by micromethod; assay type: functional; conditions: H37Rv CNCTC My 331/88, 504 h
[3] = test system: Mycobacterium avium; experiment: Antimycobacterial activity against Mycobacterium avium CNCTC My 330/80 after 14 days by micromethod; assay type: functional; conditions: CNCTC My 330/80, 336 h
[4] = test system: Mycobacterium avium; experiment: Antimycobacterial activity against Mycobacterium avium CNCTC My 330/80 after 21 days by micromethod; assay type: functional; conditions: CNCTC My 330/80, 504 h
[5] = test system: Mycobacterium kansasii; experiment: Antimycobacterial activity against Mycobacterium kansasii CNCTC My 235/80 after 7 days by micromethod; assay type: functional; conditions: CNCTC My 235/80, 168 h
[6] = test system: Mycobacterium kansasii; experiment: Antimycobacterial activity against Mycobacterium kansasii CNCTC My 235/80 after 14 days by micromethod; assay type: functional; conditions: CNCTC My 235/80, 336 h
[7] = test system: Mycobacterium kansasii; experiment: Antimycobacterial activity against Mycobacterium kansasii CNCTC My 235/80 after 21 days by micromethod; assay type: functional; conditions: CNCTC My 235/80, 504 h
[8] = test system: Mycobacterium kansasii; experiment: Antimycobacterial activity against Mycobacterium kansasii isolate 6509/96 after 7 days by micromethod; assay type: functional; conditions: isolate 6509/96, 168 h
[9] = test system: Mycobacterium kansasii; experiment: Antimycobacterial activity against Mycobacterium kansasii isolate 6509/96 after 14 days by micromethod; assay type: functional; conditions: isolate 6509/96, 336 h
[10] = test system: Mycobacterium kansasii; experiment: Antimycobacterial activity against Mycobacterium kansasii isolate 6509/96 after 21 days by micromethod; assay type: functional; conditions: isolate 6509/96, 504 h
[11] = test system: CHO-K1; experiment: Cytotoxicity against CHOK1 cells after 24 hrs by MTT assay; assay type: cell-based; conditions: Cricetulus griseus, CHO-K1, 24 h

SMILES	MIC99 [1] [µM]	MIC99 [2] [µM]	MIC99 [3] [µM]	MIC99 [4] [µM]	MIC99 [5] [µM]	MIC99 [6] [µM]	MIC99 [7] [µM]	MIC99 [8] [µM]	MIC99 [9] [µM]	MIC99 [10] [µM]	pIC50 [11]
O=[N+]([O-])c1cc(-c2nnn(Cc3c(F)cccc3Cl)n2)cc([N+](=O)[O-])c1	0.5 (≈ 0.189 µg/mL)	0.5 (≈ 0.189 µg/mL)	4 (≈ 1.51 µg/mL)	8 (≈ 3.03 µg/mL)	0.5 (≈ 0.189 µg/mL)	1 (≈ 0.379 µg/mL)	1 (≈ 0.379 µg/mL)	0.5 (≈ 0.189 µg/mL)	1 (≈ 0.379 µg/mL)	1 (≈ 0.379 µg/mL)	
NNC(=O)c1ccncc1 [ISONIAZID]			> 250			> 250		4 (≈ 0.549 µg/mL)	4 (≈ 0.549 µg/mL)	4 (≈ 0.549 µg/mL)	
COc1ccc(-n2nnnc2SCn2nnc(-c3cc([N+](=O)[O-])cc([N+](=O)[O-])c3)n2)cc1	0.25 (≈ 0.114 µg/mL)	0.5 (≈ 0.228 µg/mL)	1 (≈ 0.456 µg/mL)	1 (≈ 0.456 µg/mL)	0.5 (≈ 0.228 µg/mL)	1 (≈ 0.456 µg/mL)	2 (≈ 0.913 µg/mL)	0.25 (≈ 0.114 µg/mL)	0.5 (≈ 0.228 µg/mL)	1 (≈ 0.456 µg/mL)	
COc1ccccc1-n1nnnc1SCn1nnc(-c2cc([N+](=O)[O-])cc([N+](=O)[O-])c2)n1	0.25 (≈ 0.114 µg/mL)	0.25 (≈ 0.114 µg/mL)	32 (≈ 14.6 µg/mL)	32 (≈ 14.6 µg/mL)	32 (≈ 14.6 µg/mL)	32 (≈ 14.6 µg/mL)	32 (≈ 14.6 µg/mL)	32 (≈ 14.6 µg/mL)	32 (≈ 14.6 µg/mL)	32 (≈ 14.6 µg/mL)	
COc1ccc(-n2nnnc2Sc2cc([N+](=O)[O-])cc([N+](=O)[O-])c2)cc1	1 (≈ 0.374 µg/mL)	1 (≈ 0.374 µg/mL)	8 (≈ 2.99 µg/mL)	16 (≈ 5.99 µg/mL)	2 (≈ 0.749 µg/mL)	4 (≈ 1.5 µg/mL)	4 (≈ 1.5 µg/mL)	2 (≈ 0.749 µg/mL)	4 (≈ 1.5 µg/mL)	4 (≈ 1.5 µg/mL)	
O=[N+]([O-])c1cc(-c2nnn(CSc3nnnn3-c3ccc(Br)cc3)n2)cc([N+](=O)[O-])c1	0.03 (≈ 0.0152 µg/mL)	0.03 (≈ 0.0152 µg/mL)			0.125 (≈ 0.0632 µg/mL)	0.25 (≈ 0.126 µg/mL)	0.5 (≈ 0.253 µg/mL)	0.06 (≈ 0.0303 µg/mL)	0.125 (≈ 0.0632 µg/mL)	0.25 (≈ 0.126 µg/mL)	4.54
CO[C@H]1/C=C/O[C@@]2(C)Oc3c(C)c(O)c4c(O)c(c(/C=N/N5CCN(C)CC5)c(O)c4c3C2=O)NC(=O)/C(C)=C\C=C\[C@H](C)[C@H](O)[C@@H](C)[C@@H](O)[C@@H](C)[C@H](OC(C)=O)[C@@H]1C [RIFAMPIN]	0.25 (≈ 0.206 µg/mL)		32 (≈ 26.3 µg/mL)			0.25 (≈ 0.206 µg/mL)			0.125 (≈ 0.103 µg/mL)		
O=[N+]([O-])c1cc(-c2nnn(CCCCSc3nnnn3-c3ccc(Br)cc3)n2)cc([N+](=O)[O-])c1	0.5 (≈ 0.274 µg/mL)	0.5 (≈ 0.274 µg/mL)	1 (≈ 0.547 µg/mL)	1 (≈ 0.547 µg/mL)	0.5 (≈ 0.274 µg/mL)	1 (≈ 0.547 µg/mL)	1 (≈ 0.547 µg/mL)	1 (≈ 0.547 µg/mL)	1 (≈ 0.547 µg/mL)	2 (≈ 1.09 µg/mL)	
O=[N+]([O-])c1cc(-c2nnn(CCSc3nnnn3-c3ccc(Br)cc3)n2)cc([N+](=O)[O-])c1	0.5 (≈ 0.26 µg/mL)	0.5 (≈ 0.26 µg/mL)	2 (≈ 1.04 µg/mL)	2 (≈ 1.04 µg/mL)	0.5 (≈ 0.26 µg/mL)	1 (≈ 0.519 µg/mL)	1 (≈ 0.519 µg/mL)	1 (≈ 0.519 µg/mL)	1 (≈ 0.519 µg/mL)	1 (≈ 0.519 µg/mL)	
O=[N+]([O-])c1cc(-c2nnnn2Cc2ccc(Cl)cc2)cc([N+](=O)[O-])c1	4 (≈ 1.44 µg/mL)	4 (≈ 1.44 µg/mL)	16 (≈ 5.77 µg/mL)	16 (≈ 5.77 µg/mL)	8 (≈ 2.89 µg/mL)	16 (≈ 5.77 µg/mL)	16 (≈ 5.77 µg/mL)	4 (≈ 1.44 µg/mL)	8 (≈ 2.89 µg/mL)	8 (≈ 2.89 µg/mL)	
O=[N+]([O-])c1cc(-c2nnn(Cc3cc(F)cc(F)c3)n2)cc([N+](=O)[O-])c1	0.25 (≈ 0.0906 µg/mL)	5 (≈ 1.81 µg/mL)	8 (≈ 2.9 µg/mL)	16 (≈ 5.8 µg/mL)	1 (≈ 0.362 µg/mL)	2 (≈ 0.725 µg/mL)	4 (≈ 1.45 µg/mL)	1 (≈ 0.362 µg/mL)	2 (≈ 0.725 µg/mL)	4 (≈ 1.45 µg/mL)	
